The results in this text go back to patent US4626542A, “4-(5H-dibenzo[a,d]cyclohepten-5-yl)piperidine compounds, pharmaceutical compositions and methods” (Merck & Co., Inc., priority 1984, dated 1986).

One data set relates to Rat Aorta. As to the kind of experiment: Inhibition of calcium chloride-induced contraction of depolarized vascular smooth muscle segments (rat aorta). It counts as cell-based, rat (male Sprague-Dawley). To be noted: Rattus norvegicus, at 10^-7 M; 1.0 mM calcium chloride-induced contraction; read-out: Percent Inhibition of Rat Aorta. The procedure:
The property may be observed in a test in which segments of vascular smooth muscle obtained from male Sprague-Dawley rats are suspended in physiological salt solution in a tissue bath instrumented for recording contractions. After the tissue has been equilibrated, washed in calcium-free physiological salt solution and then depolarized, 1.0 mM calcium chloride is re-added to induce contraction. After the contraction has reached a plateau, tissues are washed and a test compound or vehicle is added to determine the effect on a second contraction achieved by the above cyclic protocol. From measuring the initial contraction as well as the second contraction in the presence of the test compound, the extent of inhibition may be calculated. The results of these tests for representative compounds in the compositions of the present invention are seen in the following table. The results are with tests conducted at very low concentrations of 10^-7 M or less.
With `CN1CCC(C2c3ccccc3C=Cc3ccc(Br)cc32)CC1` (racemic) [4-(3-Bromo-5H-dibenzo[a,d]cyclohepten-5-yl)-1-methylpiperidine, equatorial isomer], the inhibition at 0.1 µM came out at 80%. Turning to `C1=Cc2ccccc2C(C2CCN(C3CCCCC3)CC2)c2ccccc21` [4-(5H-Dibenzo[a,d]cyclohepten-5-yl)-1-cyclohexylpiperidine], the inhibition at 0.1 µM was determined as 48%.

`CC(C)N1CCC(C2c3ccccc3C=Cc3ccccc32)CC1` [4-(5H-Dibenzo[a,d]cyclohepten-5-yl)-1-isopropylpiperidine]: the inhibition at 0.1 µM was found to be 44%.

`CN1CCC(C2c3ccccc3C=Cc3ccccc32)CC1` [4-(5H-Dibenzo[a,d]cyclohepten-5-yl)-1-methylpiperidine, axial isomer]: the inhibition at 0.1 µM turned out to be 30%.

With `C[N+]1([O-])CCC(C2c3ccccc3C=Cc3ccccc32)CC1` (stereo not drawn) [4-(5H-Dibenzo[a,d]cyclohepten-5-yl)-1-methylpiperidine-1-oxide monohydrate], the inhibition at 0.1 µM is 17%.

For the compound `C1=Cc2ccccc2C(C2CCNCC2)c2ccccc21` [4-(5H-Dibenzo[a,d]cyclohepten-5-yl)piperidine], the inhibition at 0.1 µM came to 39%.

Staying with this data set, now noted: Rattus norvegicus, at 10^-8 M; 1.0 mM calcium chloride-induced contraction; read-out: Percent Inhibition of Rat Aorta.
With `COc1ccc2c(c1)C(C1CCN(C)CC1)c1ccccc1C=C2` (racemic) [4-(3-Methoxy-5H-dibenzo[a,d]cyclohepten-5-yl)-1-methylpiperidine], the inhibition at 0.01 µM was 37%. On to `CN1CCC(C2c3ccccc3C=Cc3ccccc32)CC1` [4-(5H-Dibenzo[a,d]cyclohepten-5-yl)-1-methylpiperidine, equatorial isomer], for which the inhibition at 0.01 µM turned out to be 11%.

Staying with this data set, now noted: at 10^-7 M; 1.0 mM calcium chloride-induced contraction.
`CN1CCC(C2c3ccccc3C=Cc3ccc(Br)cc32)CC1` (racemic) [5H--ax (±)4-(3-Bromo-5H--dibenzo[a,d]cyclohepten-5-yl)-1-met] [4-(3-Bromo-5H-dibenzo[a,d]cyclohepten-5-yl)-1-methylpiperidine, axial isomer]: the “Percent Inhibition of Rat Aorta” value stood at 79%. For `CN1CCC(C2c3ccccc3C=Cc3ccc(Br)cc32)CC1` (single isomer, unassigned; (+)) [5H--eq (+)4-(3-Bromo-5H--dibenzo[a,d]cyclohepten-5-yl)-1-met] [(+)-4-(3-bromo-5H-dibenzo[a,d]cyclohepten-5-yl)-1-methylpiperidine], the “Percent Inhibition of Rat Aorta” value came out at 22%. `CN1CCC(C2c3ccccc3C=Cc3ccc(Br)cc32)CC1` (single isomer, unassigned; (-)) [5H--eq (-)4-(3-Bromo-5H--dibenzo[a,d]cyclohepten-5-yl)-1-met] [(-)-4-(3-bromo-5H-dibenzo[a,d]cyclohepten-5-yl)-1-methylpiperidine]: the “Percent Inhibition of Rat Aorta” value was determined as 92%.

Test system in another data set: not listed separately
Put plainly: Isomerization of the 5H axial to the 5H equatorial isomer followed by 1H NMR. It counts as physicochemical. As to conditions: 3.67 milligrams in 1 milliliter CDCl3, heated at 55° C.±1° C. The protocol: Isomerization of the 5H axial isomer of 4-(5H-dibenzo[a,d]cyclohepten-5-yl)-1-methylpiperidine to the 5H equatorial isomer was carried out in an NMR tube. 3.67 milligrams of the axial isomer was dissolved in 1 milliliter of CDCl3 at 24° C. and the sample inserted into the probe of a Nicolet NT-360 NMR spectrometer where it was heated at 55° C.±1° C. NMR spectra (^1 H) were obtained every 864 seconds until isomerization to the equatorial isomer was complete as evidenced by the disappearance of the singlet corresponding to the 5H-axial proton and appearance of the 5H-equatorial proton (about 48,727 seconds).
Consider `CN1CCC(C2c3ccccc3C=Cc3ccccc32)CC1` [4-(5H-Dibenzo[a,d]cyclohepten-5-yl)-1-methylpiperidine, axial isomer], for which the “time until isomerization to the equatorial isomer was complete” value was “about 48,727 seconds”.

By inhibition is commonly meant the share of the control response that was lost under treatment.
